As a reminder, the IC50 is the point on the concentration scale where inhibition reaches its midpoint.

For one assay, the system named is SK-MEL-28 melanoma cells. Put plainly: Cell viability (MTT), SK-MEL-28. The format is cell-based. The following applies: Homo sapiens; SK-MEL-28, 72 hours; read-out: IC50 of INT2-31, cell viability. The protocol: Cell viability (MTT) and CFSE Proliferation assay: Cells were plated in 96-well plates and let adhere overnight. After cell treatment, cell viability was measured by 3-(4,5-dimethylthiazol-2-yl)-2,5-diphenyl tetrazolium bromide (MTT) assay (CellTiter 96® Aqueous, Promega, Madison, Wis.).
Cell viability and detachment assays: After cells were treated with siRNA transfection, cell viability was measured by 3-(4,5-dimethylthiazol2-yl)-2,5-diphenyl tetrazolium bromide (MTT) assay (CellTiter 96® AQueous, Promega, Madison, Wis.). Briefly, 20 μl of the tetrazolium compound was added to each well. The cells were then incubated at 37° C. for 1 h. The plate was read at 490 nm with a plate reader to determine the viability. In detachment assays, detached and attached cells were harvested separately and counted in a hemocytometer. The percentage of detachment was calculated by dividing the number of detached cells by the total number of cells. Apoptosis assays: After treatment, attached and detached cells were collected, counted and prepared for terminal uridine deoxynucleotidyl transferase (TUNEL) assay by utilizing an APO-BRDU kit (BD Pharmingen, San Diego, Calif.) according to the manufacturer's instructions. Stained cells were analyzed with a fluorescence-activated cell sorting-Calibur flow cytometer (BD Biosciences). […] Apoptotic cells were also analyzed by Hoechst staining. […]

The test system of assay [1] is Panc-1 orthotopic xenografts. Description: Orthotopic pancreatic xenograft, Panc-1. Particulars: Panc-1, 21 days. The format is in vivo, mice. Set-up: dose or concentration left out as unconfirmed. The source says: For the orthotopic model of pancreatic cancer, the University of Florida IACUC approved the following protocol (IACUC Study #2000801506). The pancreatic cancer cell lines, Mia paca-2 and Panc-1 cells were stably transfected using luciferase-RFP (red fluorescent protein) reporter gene for in vivo imaging of the xenografts. Following expansion and sorting of RFP positive cells, cells were expanded in culture and 5×10^6 tumor cells were implanted into the pancreas of 20 mice. For intra-pancreatic implantation of cells, mice were anesthetized with Isoflurane using the ACS provided and maintained rodent anesthesia machine. Under sterille surgical conditions, via 1.0 cm incision of the skin, abdominal wall and peritonium, the spleen was retracted and cells were injected in […] into the tail of the pancreas using a 29-gauge needle. The abdominal wall and peritoneum was sutured using 5.0 absorbable surgical sutures and the skin was closed with medical glue (dermabond). Postoperative analgesia was 0.05 mg/kg of buprenorphine subcutaneously per 8-12 hours postoperatively.
Mice were hand restrained prior to intraperitoneal injections. Mice were euthanized 6 weeks after tumor innoculation and tumor and tissue collected. As described below, mice were imaged weekly with the IVIS lumina imager and tumor size was estimated by the bioluminescent signal. […]

SMILES strings stand for the structures.

Consider `CSc1ncnc2c1ccn2C1O[C@H](COP(=O)(O)O)[C@@H](O)[C@H]1O` (stereo partly drawn) [INT2-31, 4-(Methylthio)-7-(5-O-phosphono-D-ribofuranosyl)-{7H-Pyrrolo[2,3-d]pyrimidine}], for which, in the assay with SK-MEL-28 melanoma cells, the IC50 is 22.1 µM. Besides, the “growth of the orthotopic pancreatic xenografts” value in assay [1] was “sufficiently reduced the growth”.

These data come from patent publication US20120107323A1, “KINASE PROTEIN BINDING INHIBITORS” (University of Florida, priority 2009, published 2012).
